From US8940911B2, “Squarylated lactones inhibitors for bacterial biofilm formation” (Syracuse University, priority 2012, dated 2015)

Key:
E. coli RP437 [1] = assay: Growth studies (OD600) of planktonic E. coli; format: cell-based, Escherichia coli; conditions: for toxicity / growth inhibition of E. coli (in words): OD600 over 24 h, 1-300 μM as stated in the sentence
Procedure: The toxicity of the SHLs and BF8 at a range of concentrations (1, 10, 25, 50, 100, 200 and 300 μM) was evaluated against E. coli RP437 to determine whether these small molecules elicit their inhibition effect through a toxic mechanism. […] The effect induced by SHLs at 200 μM, the inhibitory concentration at which maximum biofilm inhibition occurs was interesting to observe.
The toxicity profile of BF8 48 would in turn allow a comparison to the library of SHLs. Parallel growth studies using BF8 48 and vinyl-SHL 3 treated and untreated control cultures in 96-well plates were performed. Inhibitor concentrations used during growth studies ranged from […]-300 μM.
An overnight culture of E. coli RP437 grown in LB media (OD600 of 1.0) containing streptomycin (10 μg/mL) was subsequently sub-cultured to an OD600 of 0.04 (1:100 dilution with LB media). To each well in the solvent resistant polypropylene or polystyrene-based 96-well microtiter plates were added varying concentrations of the synthetic molecules respectively (1, 10, 25, 50, 100, 200 and 300 μM). Further, to each of the wells containing the known concentrations of synthetic molecules was added 200 μL of the sub-cultured bacteria and the contents in each well were gently mixed. Control wells comprised of untreated bacterial culture (four replicates) and the LB media (four replicates). The microtiter plates were then covered and allowed to incubate at 37° C. for 24 hours with shaking at 200 rpm. The OD600 values in each well was measured at 0, 2, 4, 6, 8, 12, 24 h after inoculation using Biotek ELx800 absorbance plate reader using Gen5™ data analysis software. For each synthetic compound, the growth experiments were repeated twice and each of the concentrations was tested over four replicates.

E. coli RP437 [2] = assay: Static biofilm inhibition assay (crystal violet, 96-well plate); format: cell-based, Escherichia coli
From the text: A primary objective was to test the ability of SHLs to inhibit biofilm formation against E. coli RP437. […] Viable controls were required that would allow us to measure and compare the activity of SHLs against known biofilm inhibitors and naturally occurring AI-1 signal molecules. […] The activity of this class of molecule is presumably similar or even marginally higher than that of brominated furanone (BF8 48) (56%).
For the present invention, the E. coli RP437 biofilms were allowed to develop in a 96-well plate in the absence or presence of SHLs. After 24 hours, the planktonic bacteria and remaining media were removed and the crystal violet was introduced in the wells. The bacterial biofilm being formed at the air/liquid interface on the inside wall of the well is stained readily by crystal violet. After removing the excess crystal violet and repeatedly washing the wells with water, followed by ethanol solubilization of the dye, allows quantification of the amount of biofilm by spectrophotometry (OD600). […] We believe that the observed biofilm inhibition activity cannot be directly attributed to any predominant structural feature inherent in the SHLs. Rather, the small deviations in the structures of the SHLs and their effect on biofilm formation could be a result of the nature of non-covalent forces that arise during SHLs presumed binding within the receptor active site.
An overnight culture of E. coli RP437 grown in LB media (OD600 of 1.0) containing streptomycin (10 μg/mL) was subsequently sub-cultured to an OD600 of 0.04 (1:100 dilution with LB media). To each well in the solvent resistant polypropylene or polystyrene-based 96-well microtiter plates were added 200 μL of the sub-cultured bacteria respectively. To each of the wells containing the bacterial cultures varying concentrations of the synthetic molecules was added and the contents in each well were gently mixed. Control wells comprised of untreated bacterial culture (four replicates) and the LB media (four replicates). The microtiter plates were then covered and wrapped in a Saran wrap and allowed to incubate at 37° C. for 24 hours without shaking. After that time, the microbial medium in each well was discarded and the remaining biofilm that was formed during incubation was stained with 225 μL of a 0.1% crystal violet solution and allowed to incubate at room temperature for 30 minutes. After the incubation period, the crystal violet was discarded and the wells were gently washed twice with water (230-250 μL) and allowed to air dry for 15-20 minutes. For the purpose of solubilizing the remaining crystal violet that had stained the biofilm present in the interior of the 96-well plates, a 250 μL solution of 95% ethanol was used. After the addition of 95% ethanol, the contents of each well were mixed thoroughly and allowed to sit for 15-20 minutes. Finally, the biofilm formed was quantified by transferring 100 μL of the ethanol solution into a fresh polystyrene microtiter dish that was subsequently read by an absorbance plate reader (A600). After elimination of background absorbance, the percentage inhibition was calculated by dividing the amount of absorbed crystal violet in wells that contained the synthetic compound by the amount of absorbed crystal violet in wells that contained bacteria only (control). Biofilm assays for each synthetic compound were repeated two to three times and each concentration considered for inhibition studies were tested over four replicates.

[3] = E. coli RP437, 200 μM, 24 h, crystal violet

Compound | toxicity / growth inhibition of E. coli (in words) (E. coli RP437 [1]) | inhibition of biofilm formation (E. coli RP437 [2]; [3]) [%] | E. coli growth relative to untreated sample (E. coli RP437 [1]; 200 μM, at 4 h, OD600) [%] | toxicity / growth inhibition of E. coli (in words) (E. coli RP437 [1]; listed as Vinyl-SHL 3) | biofilm inhibition (in words) (E. coli RP437 [2]; [3]) | biofilm inhibition values used in the ratio 26/57×100 (E. coli RP437 [2]; E. coli RP437, unit not given)
CC1=C(Br)/C(=C/Br)OC1=O [BF8 48, reference compound] | marked attenuation of E. coli growth | 56 |  |  |  | 
CCCCOc1c(NC2CCCC2)c(=O)c1=O [butoxy-SCPA 46] | no inhibition of E. coli growth up to 300 μM | 42 |  |  |  | 
C=Cc1c(NC2CCOC2=O)c(=O)c1=O (stereo not drawn) [vinyl-SHL 3] | less toxicity compared to BF8 48 |  | 77 | after 8 h, E. coli RP437 growth reverts back normally | greatest inhibition of biofilm | 57
